Reference: patent US20250092065A1, “2-(INDAZOL-5-YL)-6-(PIPERIDIN-4-YL)-1,7-NAPHTHYRIDINE DERIVATIVES AND RELATED COMPOUNDS AS MODULATORS FOR SPLICING NUCLEIC ACIDS AND FOR THE TREATMENT OF PROLIFERATIVE DISEASES” (REMIX THERAPEUTICS INC., priority 2022, published 2025)
Structures can show the parent of a compound that is named as a salt. Where two headings read alike, the source gives them in different places.

Assays:
Format in all cases: cell-based, human
HTT mRNA = experiment: RT-qPCR splicing assay, HTT mRNA canonical (CJ) and alternative (AJ) junction; settings: Homo sapiens; for AC50: HTT alternative junction mRNA, read-out: HTT AJ (increase in AJ mRNA, AC50)
Summary of the method: (§1)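 A673 or K562 cells treated 24 h at 37 °C with 11-point 3-fold dilutions (top final 10 uM, DMSO ≤0.25%). Lysates analysed by one-step RT-qPCR for canonical (CJ) and alternative-exon (AJ) junctions, normalized to GAPDH, GUSB or PPIA. ΔΔCt vs DMSO, RQ = 2^(−ΔΔCt), expressed as percentage response.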

MYB mRNA = experiment: RT-qPCR splicing assay, MYB mRNA canonical (CJ) and alternative (AJ) junction; settings: Homo sapiens; for AC50: MYB alternative junction mRNA, read-out: MYB AJ (increase in AJ mRNA, AC50)
Summary of the method: as §1

SMN2 mRNA = experiment: RT-qPCR splicing assay, SMN2 mRNA; settings: Homo sapiens, canonical junction qPCR panel, Table 4; read-out: SMN2 IC50 (decrease in CJ mRNA levels)
Summary of the method: as §1

[1] = HTT canonical junction mRNA, RT-qPCR, read-out: HTT CJ (decrease in CJ mRNA levels, IC50)
[2] = canonical junction qPCR panel, Table 4, read-out: HTT IC50 (decrease in CJ mRNA levels)
[3] = MYB canonical junction mRNA, RT-qPCR, read-out: MYB CJ (decrease in CJ mRNA levels, IC50)
[4] = canonical junction qPCR panel, Table 4, read-out: MYB IC50 (decrease in CJ mRNA levels)

Row | SMILES | AC50 (HTT mRNA; RT-qPCR) [µM] | IC50 (HTT mRNA; [1]) [µM] | IC50 (HTT mRNA; [2]) [µM] | AC50 (MYB mRNA; RT-qPCR) [µM] | IC50 (MYB mRNA; [3]) [µM] | IC50 (MYB mRNA; [4]) [µM] | IC50 (SMN2 mRNA) [µM]
1 | Cn1cc2cc(-c3ccc4cc(N5CCC(NC(C)(C)C)C5)ncc4n3)c(O)cc2n1 (centres unmarked) [Compound 449, 5-{6-[3-(tert-butylamino)pyrrolidin-1-yl]-1,7-naphthyridin-2-yl}-2-methylindazol-6-ol] | 1 to 10 | 1 to 10 | 1 to 10 | 0.1 to 1 | 0.1 to 1 | 0.1 to 1 | < 0.1
2 | Cc1nc2cc(O)c(-c3ccc4cc(N5CC[C@H](NC(C)(C)C)C5)ncc4n3)cc2o1 [Compound 450] | 1 to 10 | 1 to 10 | 1 to 10 | 1 to 10 | 1 to 10 | 1 to 10 | 1 to 10
3 | Cc1c(O)c(-c2cc(Cl)c3cc(N4CCNCC4)cc(C)c3n2)cc2cn(C)nc12 [Compound 482, 5-[4-chloro-8-methyl-6-(piperazin-1-yl)577yrrolidi-2-yl]-2,7-dimethylindazol-6-ol hydrochloride] | 0.1 to 1 | < 0.1 | < 0.1 | < 0.1 | < 0.1 | < 0.1 | < 0.1
4 | Cc1cc2nc(-c3cc4cn(C)nc4c(C)c3O)cc(Cl)c2cc1N1CCNCC1 [Compound 484, 5-[4-chloro-7-methyl-6-(piperazin-1-yl)586yrrolidi-2-yl]-2,7-dimethylindazol-6-ol] | > 10 | > 10 | > 10 | 0.1 to 1 | 0.1 to 1 | 0.1 to 1 | < 0.1
5 | CNC1CCN(c2cc3c(Cl)cc(-c4cc5cn(C)nc5c(C)c4O)nc3cc2C)C1 (centres unmarked) [Compound 486, 5-{4-chloro-7-methyl-6-[3-(methylamino)pyrrolidin-1-yl]quinolin-2-yl}-2,7-dimethylindazol-6-ol] | 1 to 10 | 1 to 10 | 1 to 10 | 0.1 to 1 | 0.1 to 1 | 0.1 to 1 | < 0.1
